Starred links: 1 amine or outer side, 2 acyl side, 3 side chain; linkers in the order of their positions; H or OH if unused. Positions of bridges follow the written chain, without caps; N, C: chain ends. Non-standard residues stand in square brackets, D forms with d. Residues, ends and D or L forms follow the SMILES beside them. *: point of attachment. hPhe(3-Cl-4-CF3) = N[C@@H](CCc1ccc(C(F)(F)F)c(Cl)c1)C(=O)O; X38 = CN([C@@H](Cc1cccc(OC(F)(F)F)c1)C(=O)[*:2])[*:1]; NMePhe(3-CF3) = CN[C@@H](Cc1cccc(C(F)(F)F)c1)C(=O)O; NMePhe(4-CF3) = CN[C@@H](Cc1ccc(C(F)(F)F)cc1)C(=O)O; hPhe(4-CF3) = N[C@@H](CCc1ccc(C(F)(F)F)cc1)C(=O)O; NMeAbu(4,4,4-F3) = CN[C@@H](CC(F)(F)F)C(=O)O; NMePhe(4-Cl) = CN[C@@H](Cc1ccc(Cl)cc1)C(=O)O; NMePhe(4-Me) = CN[C@@H](Cc1ccc(C)cc1)C(=O)O; NMedβ3hAla = C[C@H](CC(=O)[*:2])N(C)[*:1]; Abu(4,4,4-F3) = N[C@@H](CC(F)(F)F)C(=O)O; Pro(4,4-F2) = O=C(O)[C@@H]1CC(F)(F)CN1; NMeCha = CN[C@@H](CC1CCCCC1)C(=O)O; NMeCba = CN[C@@H](CC1CCC1)C(=O)O; NMeChg = CN[C@H](C(=O)O)C1CCCCC1; NMeI = CC[C@H](C)[C@H](NC)C(=O)O; NMeD = CN[C@@H](CC(=O)O)C(=O)O; NMeL = CN[C@@H](CC(C)C)C(=O)O; NMeV = CN[C@H](C(=O)O)C(C)C; d(β3hA) = C[C@@H](N)CC(=O)O; NMeS = CN[C@@H](CO)C(=O)O; NMeA = CN[C@@H](C)C(=O)O; NMeAib = CNC(C)(C)C(=O)O; Piperidide = C1CCN(*)CC1; Pyrrolidide = C1CCN(*)C1; dNMeA = CN[C@H](C)C(=O)O; Ac5c = NC1(C(=O)O)CCCC1; Aze = O=C(O)[C@@H]1CCN1; CH2CMe2OH = CC(C)(O)C*; Ac3c = NC1(C(=O)O)CC1; Aib = CC(C)(N)C(=O)O; Isopentyl = CC(C)CC*; Sar = CNCC(=O)O
These compounds were tested against T1, Kras and SOS1 (biotin-tagged human Kras loaded with GDP, His-tagged human SOS1) (Homo sapiens, UniProt P01116, G12D) (assay: Protein-protein interaction inhibition between Kras and SOS1 (KrasGl2D-SOS PPI) using AlphaScreen). Conditions: AlphaScreen; biotin-tagged human Kras loaded with GDP, His-tagged human SOS1; read-out: KRAS G12D-SOS PPI IC50.
T1 construct: made in house; host or cells: E. coli (stated for Kras only)
T1 sequence (P01116 1-188 isoform P01116-2 G12D): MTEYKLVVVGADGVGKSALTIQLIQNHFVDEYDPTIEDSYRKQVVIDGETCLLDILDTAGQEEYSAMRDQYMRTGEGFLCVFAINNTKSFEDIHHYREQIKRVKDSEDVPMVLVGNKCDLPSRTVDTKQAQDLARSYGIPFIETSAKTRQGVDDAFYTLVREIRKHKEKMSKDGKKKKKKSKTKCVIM
Type: binding
Method in brief: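 Energy transfer from nickel-chelate donor beads bound to His-SOS1 to streptavidin acceptor beads bound to biotin-Kras, expressed in E. coli and loaded with GDP after purification, was monitored. Donors were excited at 680 nm; singlet oxygen reaching acceptors gave emission read at 520-620 nm.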

Compound	IC50 [nM]
CC(C)C[C@H]1C(=O)N[C@@H](CC(F)(F)F)C(=O)N(C)[C@@H](C)C(=O)N2CC[C@H]2C(=O)N(C)[C@@H](CC2CCCCC2)C(=O)N(C)CC(=O)N[C@@H](CCc2ccc(C(F)(F)F)c(Cl)c2)C(=O)N2CCC[C@H]2C(=O)NC2(CCCC2)C(=O)N(C)[C@@H](C(C)C)C(=O)N(C)[C@H](C(=O)N2CCCCC2)CC(=O)N1C [Compound 1864] ([NMeL][Abu(4,4,4-F3)][NMeA][Aze][NMeCha][Sar][hPhe(3-Cl-4-CF3)]P[Ac5c][NMeV][NMeD]-Piperidide; lactam N-11)	48
CC[C@H](C)[C@@H]1NC(=O)[C@H](C)N(C)C(=O)C[C@@H](C(=O)N(C)C)N(C)C(=O)[C@H]([C@@H](C)CC)N(C)C(=O)C2(CCCC2)NC(=O)[C@H](Cc2cccc(OC(F)(F)F)c2)N(C)C(=O)[C@H](CCc2ccc(C(F)(F)F)c(Cl)c2)NC(=O)CN(C)C(=O)[C@H](Cc2ccc(C)cc2)N(C)C(=O)[C@@H]2CCN2C(=O)[C@H](C)N(C)C1=O [Compound 1945] ([NMeA]I[NMeA][Aze][NMePhe(4-Me)][Sar][hPhe(3-Cl-4-CF3)][X38][Ac5c][NMeI][NMeD]-NMe2; lactam N-11)	18
CC[C@H](C)[C@@H]1NC(=O)[C@H](CC(F)(F)F)N(C)C(=O)C[C@@H](C(=O)N2CCCC2)N(C)C(=O)[C@H](C2CCCCC2)N(C)C(=O)C2(CCCC2)NC(=O)[C@@H]2CC(F)(F)CN2C(=O)[C@H](CCc2ccc(C(F)(F)F)c(Cl)c2)NC(=O)CN(C)C(=O)[C@H](CC2CCCCC2)N(C)C(=O)CN(C)C(=O)CN(C)C1=O [Compound 1357] ([NMeAbu(4,4,4-F3)]I[Sar][Sar][NMeCha][Sar][hPhe(3-Cl-4-CF3)][Pro(4,4-F2)][Ac5c][NMeChg][NMeD]-Pyrrolidide; lactam N-11)	0.52
CC[C@H](C)[C@@H]1NC(=O)[C@H](CC(C)C)N(C)C(=O)C[C@@H](C)NC(=O)[C@H](CC(C)C)N(C)C(=O)C(C)(C)NC(=O)[C@H](COCC(C)(C)O)N(C)C(=O)[C@H](CCc2ccc(C(F)(F)F)c(Cl)c2)NC(=O)CN(C)C(=O)[C@H](COCCC(C)C)N(C)C(=O)CN(C)C(=O)CN(C)C1=O [Compound 1546] (cyclo([Aib][NMeL][d(β3hA)][NMeL]I[Sar][Sar][NMeS](Isopentyl)[Sar][hPhe(3-Cl-4-CF3)][NMeS](CH2CMe2OH)))	40
CC[C@H](C)[C@@H]1NC(=O)[C@H](C)N(C)C(=O)C[C@@H](C)NC(=O)[C@H](CC(C)C)N(C)C(=O)C(C)(C)NC(=O)[C@@H]2CCCN2C(=O)[C@H](CCc2ccc(C(F)(F)F)cc2)NC(=O)CN(C)C(=O)[C@H](Cc2ccc(Cl)cc2)N(C)C(=O)CN(C)C(=O)CN(C)C1=O [Compound 664] (cyclo([Aib][NMeL][d(β3hA)][NMeA]I[Sar][Sar][NMePhe(4-Cl)][Sar][hPhe(4-CF3)]P))	25
CC[C@H](C)[C@@H]1NC(=O)[C@H](CC(C)C)N(C)C(=O)C[C@@H](C)NC(=O)[C@H](C(C)C)N(C)C(=O)C2(CC2)NC(=O)[C@@H]2CCCN2C(=O)[C@H](CCc2ccc(C(F)(F)F)c(Cl)c2)NC(=O)CN(C)C(=O)[C@H](CC2CCCCC2)N(C)C(=O)CN(C)C(=O)CN(C)C1=O [Compound 1111] (cyclo([Ac3c][NMeV][d(β3hA)][NMeL]I[Sar][Sar][NMeCha][Sar][hPhe(3-Cl-4-CF3)]P))	41
CC[C@H](C)[C@@H]1NC(=O)[C@H](CC(C)C)N(C)C(=O)C[C@@H](C)N(C)C(=O)[C@H](CC(C)C)NC(=O)C(C)(C)N(C)C(=O)[C@H](CC(C)C)NC(=O)[C@H](CCc2ccc(C(F)(F)F)c(Cl)c2)NC(=O)[C@@H](C)N(C)C(=O)[C@H](Cc2ccc(C(F)(F)F)cc2)N(C)C(=O)[C@@H]2CCN2C(=O)CN(C)C1=O [Compound 1395] (cyclo([Aze][NMePhe(4-CF3)][dNMeA][hPhe(3-Cl-4-CF3)]L[NMeAib]L[NMedβ3hAla][NMeL]I[Sar]))	270
CC[C@H](C)[C@@H]1NC(=O)[C@H](CC(C)C)N(C)C(=O)C[C@@H](C)NC(=O)[C@H](C(C)C)N(C)C(=O)C2(CCCC2)NC(=O)[C@@H]2CCCN2C(=O)[C@H](CCc2ccc(C(F)(F)F)c(Cl)c2)NC(=O)CN(C)C(=O)[C@H](Cc2cccc(C(F)(F)F)c2)N(C)C(=O)CN(C)C(=O)CN(C)C1=O [Compound 1575] (cyclo([Ac5c][NMeV][d(β3hA)][NMeL]I[Sar][Sar][NMePhe(3-CF3)][Sar][hPhe(3-Cl-4-CF3)]P))	45
CC[C@H](C)[C@@H]1NC(=O)[C@H](CC(C)C)N(C)C(=O)C[C@@H](C)N(C)C(=O)[C@H](CC2CCC2)N(C)C(=O)C2(CCCC2)NC(=O)[C@@H]2CCCN2C(=O)[C@H](CCc2ccc(C(F)(F)F)c(Cl)c2)NC(=O)CN(C)C(=O)[C@H](CC2CCCCC2)N(C)C(=O)CN(C)C(=O)CN(C)C1=O [Compound 723] (cyclo([Ac5c][NMeCba][NMedβ3hAla][NMeL]I[Sar][Sar][NMeCha][Sar][hPhe(3-Cl-4-CF3)]P))	17

Reference: US12371454B2, “Cyclic peptide compound having Kras inhibitory action” (priority 2019, dated 2025)
